Data: patent US10814013B2, “Efficient synthesis of chelators for nuclear imaging and radiotherapy: compositions and applications” (The Board of Regents of the University of Texas System, priority 2006, dated 2020)

Assays:
human lymphoma cells = assay: [^3H]Thymidine incorporation assay using Re-EC-G and a lymphoma cell line; format: cell-based; details: in vitro cell culture, dose response curve (FIG. 3)
New Zealand white rabbit = assay: PET imaging in a New Zealand white rabbit; format: in vivo; details: PET coronal images 45 minutes after injection of 0.66 mCi
Experimental: The numbers are heart/upper mediastinum (H/UM) count density (count/pixel) ratios at 15-45 minutes. […] A rabbit was administered ^68Ga-EC-trimethyl lysine (EC-TML). PET coronal images were acquired at 45 minutes after injection of 0.66 mCi of ^68Ga-EC-TML (dorsal to ventral order).

tumor cells = assay: Cellular uptake of ^99mTc-EC-G in tumor cells; format: cell-based
Experimental: (§1) To further validate EC-G biological activity, in vitro cell culture assays were performed. Briefly, the cellular uptake was determined in tumor cells (50,000 cells/well) incubated with ^99mTc-EC-G (2 μCi/well) at various time intervals. […] There was a 10-15% decrease in cellular uptake using ^99mTc-EC-G after 2-4 weeks. The useful life of EC-G in water appears to be 17.26 days.

[1] = In vitro stability of EC-G dissolved in water; format: physicochemical
Experimental: as §1

[2] = In vivo imaging studies of EC-G; details: comparison of aqueous and organic synthesized EC-G

rhenium-ethylenedicysteine-glucosamine [Re-EC-G]
activity against human lymphoma cells (human lymphoma cells): effective

^68Ga-EC-trimethyl lysine [^68Ga-EC-TML]
uptake in the heart (New Zealand white rabbit): High uptake

N,N′-ethylenedicysteine-glucosamine [EC-G]
in vitro uptake, aqueous versus organic synthesized EC-G (tumor cells; comparison of aqueous and organic synthesized EC-G): no marked difference
cellular uptake, raw (unpurified) EC-G versus prep-HPLC purified EC-G (tumor cells; tumor cells 50,000 cells/well, ^99mTc-EC-G 2 μCi/well, various time intervals (FIG. 4)): no marked difference
useful life of EC-G in water [1]: 17.26 days
in vivo imaging, EC-G from aqueous versus organic synthesis [2]: no marked difference
